# Experimental data taken from ChEMBL document CHEMBL3217548, “Biological activity and DNA binding studies of 2-substituted benzimidazo[1,2-a]quinolines bearing different amino side chains” (Medchemcomm, 2013).
# Calls of active or inactive are those of the source. The calls are words filed in the database; no cut-off is given here.
# Tests used:
# [1] = system: Calf thymus DNA; experiment: Binding affinity to calf thymus DNA assessed as bathochromic shift at 20 uM by UV/visible spectrophotometry; assay type: nucleic-acid assay; settings: Bos taurus
# [2] = system: Calf thymus DNA; experiment: Binding affinity to calf thymus DNA assessed as hypochromic shift at 20 uM by UV/visible spectrophotometry; assay type: nucleic-acid assay; settings: Bos taurus
# [3] = Binding affinity to DNA (unknown origin) at 1 to 5 uM after 15 mins by DNA footprinting assay
# [4] = species on record: Homo sapiens; experiment: Inhibition of human DNA topoisomerase 2 assessed as inhibition of DNA cleavage
# [5] = biological target: T1, DNA topoisomerase 1 (Homo sapiens) (UniProt P11387); experiment: Inhibition of human DNA topoisomerase 1 assessed as inhibition of DNA cleavage
# T1 sequence (whole entry): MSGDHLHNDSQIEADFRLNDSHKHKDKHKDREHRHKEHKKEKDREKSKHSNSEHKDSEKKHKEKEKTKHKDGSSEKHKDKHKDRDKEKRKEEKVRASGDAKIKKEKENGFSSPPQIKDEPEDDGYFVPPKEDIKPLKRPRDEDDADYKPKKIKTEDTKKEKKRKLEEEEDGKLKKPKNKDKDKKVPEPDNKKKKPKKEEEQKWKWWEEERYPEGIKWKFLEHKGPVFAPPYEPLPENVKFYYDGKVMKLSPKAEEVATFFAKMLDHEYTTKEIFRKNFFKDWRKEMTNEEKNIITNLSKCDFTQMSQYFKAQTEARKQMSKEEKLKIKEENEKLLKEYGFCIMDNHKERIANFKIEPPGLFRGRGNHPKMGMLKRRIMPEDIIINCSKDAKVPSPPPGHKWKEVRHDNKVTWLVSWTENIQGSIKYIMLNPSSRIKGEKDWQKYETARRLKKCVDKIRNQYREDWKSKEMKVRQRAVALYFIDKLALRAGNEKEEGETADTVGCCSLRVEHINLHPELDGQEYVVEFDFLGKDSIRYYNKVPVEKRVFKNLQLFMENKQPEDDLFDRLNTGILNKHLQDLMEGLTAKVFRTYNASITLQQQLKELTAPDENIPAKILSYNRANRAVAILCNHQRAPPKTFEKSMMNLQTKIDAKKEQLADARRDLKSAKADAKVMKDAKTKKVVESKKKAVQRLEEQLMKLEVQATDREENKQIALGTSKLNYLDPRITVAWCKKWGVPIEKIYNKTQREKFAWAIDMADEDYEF
# [6] = system: Escherichia coli; experiment: Binding affinity to Escherichia coli pUC19 plasmid assessed as nicked DNA at 0.1 to 5 uM by ethidium bromide staining-based agarose gel electrophoresis
# [7] = system: Escherichia coli; experiment: Binding affinity to Escherichia coli pUC19 plasmid assessed as induction of topoisomerase1-mediated DNA relaxation at 2 uM incubated for 45 mins prior to topoisomerase1 addition by agarose gel electrophoresis
# [8] = system: Calf thymus DNA; experiment: Binding affinity to calf thymus DNA assessed as DNA intercalation at 1 to 50 uM by circular dichroism analysis; assay type: nucleic-acid assay; settings: Bos taurus
# [9] = system: Calf thymus DNA; experiment: Binding affinity to calf thymus DNA assessed as change in melting temperature at 0.5 drug/DNA ratio by spectrophotometry; assay type: nucleic-acid assay; settings: Bos taurus
# [10] = Drug uptake in human H460 cell perinuclear region at 10 uM after 2 hrs by fluorescence microscopy; assay type: ADME, cell-based; settings: h460, 2 h
# [11] = Drug uptake in human H460 cell cytoplasm at 10 uM after 2 hrs by fluorescence microscopy; assay type: ADME, cell-based; settings: h460, 2 h
# [12] = system: HCT-116; experiment: Cell cycle arrest in human HCT116 cells assessed as accumulation at G2/M phase at 5 uM after 48 hrs by propidium iodide staining-based FACS analysis (reference value: 31 +/- 0.1 %); assay type: functional
# [13] = system: HCT-116; experiment: Cell cycle arrest in human HCT116 cells assessed as accumulation at G2/M phase at 0.5 uM after 48 hrs by propidium iodide staining-based FACS analysis (reference value: 31 +/- 0.1 %); assay type: functional
# [14] = system: HCT-116; experiment: Cell cycle arrest in human HCT116 cells assessed as accumulation at G2/M phase at 5 uM after 24 hrs by propidium iodide staining-based FACS analysis (reference value: 28 +/- 1 %); assay type: functional
# [15] = system: HCT-116; experiment: Cell cycle arrest in human HCT116 cells assessed as accumulation at G2/M phase at 0.5 uM after 24 hrs by propidium iodide staining-based FACS analysis (reference value: 28 +/- 1 %); assay type: functional
# [16] = system: HCT-116; experiment: Cell cycle arrest in human HCT116 cells assessed as accumulation at S phase at 5 uM after 48 hrs by propidium iodide staining-based FACS analysis (reference value: 32 +/- 1 %); assay type: functional
# [17] = system: HCT-116; experiment: Cell cycle arrest in human HCT116 cells assessed as accumulation at S phase at 0.5 uM after 48 hrs by propidium iodide staining-based FACS analysis (reference value: 32 +/- 1 %); assay type: functional
# [18] = system: HCT-116; experiment: Cell cycle arrest in human HCT116 cells assessed as accumulation at S phase at 5 uM after 24 hrs by propidium iodide staining-based FACS analysis (reference value: 39 +/- 0.2 %); assay type: functional
# [19] = system: HCT-116; experiment: Cell cycle arrest in human HCT116 cells assessed as accumulation at S phase at 0.5 uM after 24 hrs by propidium iodide staining-based FACS analysis (reference value: 39 +/- 0.2 %); assay type: functional
# [20] = system: HCT-116; experiment: Cell cycle arrest in human HCT116 cells assessed as accumulation at G1 phase at 5 uM after 48 hrs by propidium iodide staining-based FACS analysis (reference value: 37 +/- 2 %); assay type: functional
# [21] = system: HCT-116; experiment: Cell cycle arrest in human HCT116 cells assessed as accumulation at G1 phase at 0.5 uM after 48 hrs by propidium iodide staining-based FACS analysis (reference value: 37 +/- 2 %); assay type: functional
# [22] = system: HCT-116; experiment: Cell cycle arrest in human HCT116 cells assessed as accumulation at G1 phase at 5 uM after 24 hrs by propidium iodide staining-based FACS analysis (reference value: 33 +/- 1 %); assay type: functional
# [23] = system: HCT-116; experiment: Cell cycle arrest in human HCT116 cells assessed as accumulation at G1 phase at 0.5 uM after 24 hrs by propidium iodide staining-based FACS analysis (reference value: 33 +/- 1 %); assay type: functional
# [24] = system: HCT-116; experiment: Cell cycle arrest in human HCT116 cells assessed as accumulation at subG0/G1 phase at 5 uM after 48 hrs by propidium iodide staining-based FACS analysis (reference value: 4 +/- 1 %); assay type: functional
# [25] = system: HCT-116; experiment: Cell cycle arrest in human HCT116 cells assessed as accumulation at subG0/G1 phase at 0.5 uM after 48 hrs by propidium iodide staining-based FACS analysis (reference value: 4 +/- 1 %); assay type: functional
# [26] = system: HCT-116; experiment: Cell cycle arrest in human HCT116 cells assessed as accumulation at subG0/G1 phase at 5 uM after 24 hrs by propidium iodide staining-based FACS analysis (reference value: 4 +/- 1 %); assay type: functional
# [27] = system: HCT-116; experiment: Cell cycle arrest in human HCT116 cells assessed as accumulation at subG0/G1 phase at 0.5 uM after 24 hrs by propidium iodide staining-based FACS analysis (reference value: 4 +/- 1 %); assay type: functional
# [28] = system: MCF7; experiment: Cytotoxicity against human MCF7 cells after 72 hrs by MTT assay; assay type: functional, cell-based; settings: MCF7, 72 h
# [29] = Cytotoxicity against human H460 cells after 72 hrs by MTT assay; assay type: functional, cell-based; settings: NCI-H460, 72 h
# [30] = system: HCT-116; experiment: Cytotoxicity against human HCT116 cells after 72 hrs by MTT assay; assay type: functional, cell-based; settings: HCT-116, 72 h
# [31] = system: DNA; experiment: Induction of DNA damage in plasmid DNA in E. coli S30 cell-free system assessed as inhibition of EGFP translation at 50 uM after 1 hr by fluorescence assay
smiles,measurement,setting,value
C[N+]1(C)CCN(c2ccc3cc(C#N)c4nc5ccccc5n4c3c2)CC1.[I-],Activity,[1],Active
same,Activity,[2],Active
same,Activity,[3],Active
same,Activity,[4],inactive
same,Activity,[5],inactive
same,Activity,[6],Active
same,Activity,[7],Active
same,Activity,[8],Active
same,ΔTm,[9],15.4 °C
same,Drug uptake,[10],Active
same,Drug uptake,[11],Active
same,Activity,[12],28%
same,Activity,[13],31%
same,Activity,[14],29%
same,Activity,[15],32%
same,Activity,[16],29%
same,Activity,[17],32%
same,Activity,[18],33%
same,Activity,[19],36%
same,Activity,[20],43%
same,Activity,[21],37%
same,Activity,[22],38%
same,Activity,[23],32%
same,Activity,[24],5%
same,Activity,[25],6%
same,Activity,[26],7%
same,Activity,[27],6%
same,IC50,[28],2400 nM
same,IC50,[29],2000 nM
same,IC50,[30],600 nM
same,inhibition at 50 µM,[31],45%
